For one assay, the target named is human DPP1 enzyme (Homo sapiens, UniProt P53634). Briefly: Human DPP1 Enzyme IC50 Assay. The class given is biochemical. More on the design: was first proteolytically processed into its mature form using recombinant human cathepsin L; purchased R&D Systems. In a few lines: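 IC50 came from a four-parameter fit of activity relative to no-compound control, with fluorescence (Ex 350/Em 450 nm) read every 5 min for 90 min at 37 °C using 400 μM final H-Gly-Arg-AMC. Cathepsin L-matured human recombinant DPP1 was preincubated 10 min with compound at pH 6.0 (MES, DTT, 1% DMSO).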
Sequence of human DPP1 enzyme (P53634 25-134 limits assumed): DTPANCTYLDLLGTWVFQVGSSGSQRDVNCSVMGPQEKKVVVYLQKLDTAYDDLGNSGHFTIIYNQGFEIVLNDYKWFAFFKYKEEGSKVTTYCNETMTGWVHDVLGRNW
Sequence of human DPP1 enzyme (P53634 231-394 limits assumed): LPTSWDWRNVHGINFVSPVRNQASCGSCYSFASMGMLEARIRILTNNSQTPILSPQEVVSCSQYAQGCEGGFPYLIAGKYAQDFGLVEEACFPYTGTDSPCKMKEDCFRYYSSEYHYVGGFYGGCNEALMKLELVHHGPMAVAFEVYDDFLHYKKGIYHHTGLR
Sequence of human DPP1 enzyme (P53634 395-463 limits assumed): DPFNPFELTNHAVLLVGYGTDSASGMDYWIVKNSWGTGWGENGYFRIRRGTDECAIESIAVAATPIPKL

Another assay addresses T1, active mouse DPP1 enzyme (Mus musculus, UniProt P97821).
T1 construct: Each subunit is composed of an N-terminal fragment, a heavy chain and a light chain; purchased R&D Systems
Briefly: Mouse DPP1 Enzyme IC50 Assay. The class given is biochemical. How it is done: Example 96: Mouse DPP1 Enzyme IC50 Assay
Test articles were applied to active mouse DPP1 enzyme (R&D Systems; Minneapolis, MN) in Assay Buffer (50 mM MES pH 5.5, 50 mM NaCl, 5 mM DTT) in a total reaction volume of 125 μL. 25 μL of compound in Assay Buffer plus […] was first added to 50 μL of active mouse DPP1 enzyme at a concentration of 62.5 pg/μL and allowed to pre-incubate for 10 minutes at 37° C. after which 50 μL of […] H-Gly-Arg-AMC substrate (Bachem; St. Torrance, CA) was added, giving final substrate concentration of 400 µM and a final DMSO concentration of […]. Substrate cleavage was measured for 90 minutes at 37° C., with fluorescence at Excitation/Emission 350/450 nm measured every 5 minutes. DPP1 concentration was interpolated based on its activity relative to a standard curve of recombinant active mouse DPP enzyme. IC50 values for each compound were calculated via the XLFit (IDBS Version 5.3.1.3) Add-On to Microsoft Excel using the four parameter fit equation y=(A+((B−A)/(1+((C/x)^D)))), which appears as equation number 205 (4 Parameter Logistic Model or Sigmoidal Dose-Response Model) in XLFit. Default constraints were used for each Parameter. IC50 was defined as the compound concentration at which 50% of enzyme activity was inhibited when compared to the no-compound control.
In Table 2, *** represent average IC50≤5 nM, ** represents average IC50 in the range of 5-20 nM, and * represents average IC50 in the range of ≥20 nM, where the designations were made solely based on the average value without taking into account of the standard deviations.

In the next assay the target is DPP1 in HL-60 cells (Homo sapiens, UniProt P53634). Nature of the assay: DPP1 Cell IC50 assay. The class given is cell-based. The note with it: 60 min pre-incubation, H-Gly-Phe-AFC substrate, average of n runs. More on the design: host or cells: HL-60 cells. In a few lines: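 Intracellular DPP1 activity read as AFC fluorescence (Ex/Em 400/505 nm) after 30 min with H-Gly-Phe-AFC (500 μM stock), following 60 min compound pre-incubation at 37° C with HL-60 cells at 5×10^5 live cells per mL in PBS. IC50 by 4-parameter fit against DMSO-only controls.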
Sequence of DPP1 in HL-60 cells (P53634 25-463): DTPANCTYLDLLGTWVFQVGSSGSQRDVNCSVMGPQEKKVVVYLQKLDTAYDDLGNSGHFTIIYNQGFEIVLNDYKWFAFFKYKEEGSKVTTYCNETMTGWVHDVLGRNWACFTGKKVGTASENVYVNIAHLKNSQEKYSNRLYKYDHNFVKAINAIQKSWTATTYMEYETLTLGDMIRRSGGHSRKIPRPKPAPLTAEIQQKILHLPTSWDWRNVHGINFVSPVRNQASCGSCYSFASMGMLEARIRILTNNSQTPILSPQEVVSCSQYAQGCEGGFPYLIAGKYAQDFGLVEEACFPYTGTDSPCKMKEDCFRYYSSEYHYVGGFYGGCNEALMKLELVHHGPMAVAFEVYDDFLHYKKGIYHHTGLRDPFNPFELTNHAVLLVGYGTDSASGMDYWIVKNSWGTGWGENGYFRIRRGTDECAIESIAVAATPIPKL

The mark [1] stands for this setting: activated recombinant human DPP1, 400 μM H-Gly-Arg-AMC, 10 minutes pre-incubation at 37° C., pH 6.0, average of n runs, read-out: Avg. IC50 (Human DPP1 enzyme IC50 value ranges).
[2] abbreviates: active mouse DPP1 enzyme, H-Gly-Arg-AMC substrate, 10 minutes pre-incubation at 37° C., pH 5.5, average of n runs, read-out: Avg. IC50 (Mouse DPP1 enzyme IC50 value ranges).
Where [3] appears, read: read-out: Avg. IC50 (DPP1 Cell IC50 value ranges).

The values below come from patent US20260008760A1, “DIPEPTIDYL PEPTIDASE 1 INHIBITORS AND USES THEREOF” (Insmed Incorporated, priority 2024, published 2026).

One may read the IC50 as the concentration that inhibits the measured activity by half.

Values joined by “and” are separate entries in the source; they are usually repeats but may differ in a detail not shown here. Equal values may be shown once. Read-outs that look alike come from different tables or passages of the source.

T1 sequence (P97821 25-134 limits assumed): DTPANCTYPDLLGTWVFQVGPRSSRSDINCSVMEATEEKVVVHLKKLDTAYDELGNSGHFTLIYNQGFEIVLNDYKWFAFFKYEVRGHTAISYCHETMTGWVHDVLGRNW
T1 sequence (P97821 231-393 limits assumed): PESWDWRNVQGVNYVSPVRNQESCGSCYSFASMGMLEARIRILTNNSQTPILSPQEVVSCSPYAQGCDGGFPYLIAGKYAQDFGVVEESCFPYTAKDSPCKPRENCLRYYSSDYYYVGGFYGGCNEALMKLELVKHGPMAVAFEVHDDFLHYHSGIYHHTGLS
T1 sequence (P97821 394-462 limits assumed): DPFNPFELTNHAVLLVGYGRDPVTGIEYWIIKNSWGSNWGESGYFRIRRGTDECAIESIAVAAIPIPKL

Regarding `N#Cc1ccc2c(c1)COc1cc(CC(C#N)NC(=O)[C@@H]3CNCCCCO3)c(F)cc1-2` (single isomer, unassigned) [Compound B9], the IC50 was 5 to 15 nM and > 15 nM on human DPP1 enzyme (setting [1]); 5 to 20 nM at active mouse DPP1 enzyme (setting [2]); 1 to 2.5 nM at DPP1 in HL-60 cells (setting [3]).
Consider `CN1CCN(S(=O)(=O)c2ccc(-c3ccc(C[C@@H](C#N)NC(=O)[C@@H]4CNCCCO4)cc3)cc2)CC1` [Compound 20, (2S)—N-[(1S)-1-cyano-2-[4′-(4-methylpiperazin-1-ylsulfonyl)-[1,1′-biphenyl]-4-yl]ethyl]-1,4-oxazepane-2-carboxamide], for which the IC50 was greater than 15 nM on human DPP1 enzyme (setting [1]), greater than 20 nM at active mouse DPP1 enzyme (setting [2]) and greater than 2.5 nM on DPP1 in HL-60 cells (setting [3]).
`CN1CCC2(CC1)OC(=O)c1ccc(-c3ccc(C[C@@H](C#N)NC(=O)[C@@H]4CNCCCO4)cc3)cc12` [Compound 14, (2S)—N-[(1S)-1-cyano-2-(4-{1′-methyl-3-oxospiro[2-benzofuran-1,4′-piperidin]-6-yl}phenyl)ethyl]-1,4-oxazepane-2-carboxamide]: the results for the IC50 on human DPP1 enzyme (setting [1]), on active mouse DPP1 enzyme (setting [2]) and at DPP1 in HL-60 cells (setting [3]) were 5 to 15 nM, 5 to 20 nM and greater than 2.5 nM, respectively.
For the molecule `Cc1nc(-c2ccc(C[C@@H](C#N)NC(=O)[C@@H]3CNCCCO3)cc2)sc1C#N` [Compound 10, (2S)—N-[(1S)-1-cyano-2-[4-(5-cyano-4-methyl-1,3-thiazol-2-yl)phenyl]ethyl]-1,4-oxazepane-2-carboxamide], the IC50 at human DPP1 enzyme (setting [1]) was greater than 15 nM; at active mouse DPP1 enzyme (setting [2]) it was greater than 20 nM; on DPP1 in HL-60 cells (setting [3]), greater than 2.5 nM.
Take `N#C[C@H](Cc1cc2c(cc1F)-c1cc(C3COC3)c(F)cc1CO2)NC(=O)[C@@H]1CNCCCO1` [Compound B2, (2S)—N-{1-cyano-2-[2,8-difluoro-9-(oxetan-3-yl)-6H-benzo[c]chromen-3-yl]ethyl}-1,4-oxazepane-2-carboxamide]: the concentration for half-maximal inhibition (IC50) was 5 to 15 nM at human DPP1 enzyme, 5 to 20 nM on active mouse DPP1 enzyme and 1 to 2.5 nM on DPP1 in HL-60 cells (Avg. IC50 (DPP1 Cell IC50 value ranges)).
Take `Cc1cn2cc(-c3ccc(C[C@@H](C#N)NC(=O)[C@@H]4CNCCCCO4)cc3)cc2c(C)n1` [Compound A27, (2S)—N-[(1S)-1-cyano-2-(4-{1,3-dimethylpyrrolo[1,2-a]pyrazin-7-yl}phenyl)ethyl]-1,4-oxazocane-2-carboxamide]: the IC50 on human DPP1 enzyme (setting [1]) is greater than 15 nM; at active mouse DPP1 enzyme (setting [2]), greater than 20 nM; at DPP1 in HL-60 cells (setting [3]), > 2.5 nM and 1 to 2.5 nM.
For the molecule `CN1CCN(Cc2ccc(-c3ccc(C[C@@H](C#N)NC(=O)[C@@H]4CNCCCO4)cc3)cc2)CC1` [Compound 9, (2S)—N-[(1S)-1-cyano-2-{4′-[(4-methylpiperazin-1-yl)methyl]-[1,1′-biphenyl]-4-yl}ethyl]-1,4-oxazepane-2-carboxamide], the IC50 on human DPP1 enzyme (setting [1]) is greater than 15 nM; on active mouse DPP1 enzyme (setting [2]), greater than 20 nM; on DPP1 in HL-60 cells (setting [3]) it was greater than 2.5 nM.
As for `CN1CCN(S(=O)(=O)c2ccc(-c3ccc(C[C@@H](C#N)NC(=O)[C@@H]4CNCCCO4)c(F)c3)cc2)CC1` [Compound 21, (2S)—N-[(1S)-1-cyano-2-[3-fluoro-4′-(4-methylpiperazin-1-ylsulfonyl)-[1,1′-biphenyl]-4-yl]ethyl]-1,4-oxazepane-2-carboxamide], the figures for the IC50 at human DPP1 enzyme (setting [1]), on active mouse DPP1 enzyme (setting [2]) and at DPP1 in HL-60 cells (setting [3]) were greater than 15 nM, greater than 20 nM and greater than 2.5 nM, respectively.
Take `Cn1nc(F)c2ccc(-c3ccc(C[C@@H](C#N)NC(=O)[C@@H]4CNCCCO4)cc3)cc21` [Compound A1, (S)—N—((S)-1-cyano-2-(4-(3-fluoro-1-methyl-1H-indazol-6-yl)phenyl)ethyl)-1,4-oxazepane-2-carboxamide]: the IC50 on human DPP1 enzyme (setting [1]) was greater than 15 nM; on active mouse DPP1 enzyme (setting [2]), greater than 20 nM; at DPP1 in HL-60 cells (setting [3]), greater than 2.5 nM.
